1 molecule from patent US12129235B2, “TSPO binders” (The University Court of the University of Glasgow, priority 2018, dated 2024) can be followed below.

The target in data set [1] is T1, TSPO (Rattus norvegicus, UniProt P16257). Briefly: ^18F-LW223 PET kinetic modelling and test-retest in rats. The format is in vivo. The arrangement: from tissue; host or cells: living Sprague-Dawley rats (brain, heart, lungs and other organs). The following applies: for VT: baseline, Logan modelling; for VT / Distribution volume ratio (DVR) relative to blood pool: mean±SEM, n=3. The method, then: All experiments were conducted in accordance with the local University of Edinburgh animal ethics committee and were authorized by the Home Office under the Animals (Scientific Procedures) Act 1986. 28 adult male Sprague-Dawley rats (357.1±8.1 g and 10.2±0.4 weeks), and 2 C57bl/6 (25.3±3.7 g and 10.1±0.0 weeks) were used for this study, with 2 C57bl/6 (26.0±5.3 g and 13.5±5.7 weeks) used in an additional study. The animals were housed under standard 12 h light:12 h dark conditions with food and water available ad libitum. On the day of the experiment, anesthesia was induced and maintained with 1.5-2.5% isoflurane (50/50 oxygen/nitrous oxide, 1 L/min). For imaging experiments, an intravenous (i.v.) line was established in the femoral vein or tail vein for injection of the radiotracer and the femoral artery was cannulated to allow automated blood sample collection, as previously described (Warnock et al.).
13 PET scans were performed with ^18F-LW223 (mean injected radioactivity of 19.55±2.1 MBq). Scans were acquired following i.v. bolus injection of ^18F-LW223 via tail vein or femoral vein shunt (invasive kinetic modelling experiments with β-probe automatic blood sampler) in rats. Test-retest scans were obtained in three rats following i.v. bolus of the radiotracer, with two weeks interval between test and retest imaging sessions. […] These scans were compared to baseline scans where no PK11195 was used. For displacement studies, rats received i.v. administration of ^18F-LW223 and scanned continuously for 120 min. […] A male and female mouse were initially used to derive the dosimetry estimates for ^18F-LW223 over a 4 h dynamic scan, followed by additional mice in a further study (in a study with a mean injected radioactivity of 10.83±5.6 MBq).
A commercially available β-probe system (Twilite2, Swisstrace, Switzerland) was used for the measurement of blood radioactivity as previously described (Warnock et al.). […] With data acquired in separate studies (radiometabolite experiments), the whole-blood arterial input function measured by the automatic blood sampler was corrected for the plasma-to-whole blood ratio and for metabolism in vivo.
All PET data were acquired using a preclinical PET/CT small animal scanner (nanoPET/CT, Mediso, Hungary). A CT scan (semi-circular full trajectory, maximum field of view, 480 projections, 50 kVp, 300 ms and 1:4 binning) was acquired for attenuation correction. Immediately following radiotracer administration, a 120 minutes emission scan was obtained using 3-dimentional 1:5 mode and re-binned as follows: 18×10 s; 2×30 s; 1×60 s; 2×2 min; 10×5 min; 6×10 min. PET images were reconstructed using Mediso's iterative Tera-Tomo 3D reconstruction algorithm and the following settings: 4 iterations, 6 subsets, full detector model, low regularization, spike filter on, voxel size 0.4 mm and 400-600 keV energy window. PET data were corrected for randoms, scatter and attenuation.
Image Processing and Data Analysis Reconstructed scans were imported into PMOD 3.8 software (PMOD Technologies, Switzerland). Volumes of interest (VOIs) were manually drawn around organs of interest. Time-activity curves (TACs) were generated and standardized uptake values (SUVs) calculated as concentration in the VOI divided by injected dose divided by animal weight. Kinetic modelling was performed using compartmental analysis (1-Tissue (1T) and 2-Tissue (2T) models) and graphical analysis (Logan plot and Ichise multivariate analysis) to estimate the volume of distribution (VT) in different tissues (Innis et al.; Logan; and Ichise et al.). Model fitting performance was evaluated using the Akaike information criterion (AIC) and the model selection criterion (MSC), where the preferred model had the lowest AIC and highest MSC. The selected identifiability criterion was the percentage standard error (% SE) of VT estimates. […]

Data set [2] in a line: Radiometabolite and arterial blood analysis. The format is in vivo, rats. The following applies: rat; 120 minutes post-injection. As for the experimental part: In a separate set of experiments (radiometabolite studies), the femoral artery was cannulated for blood sampling and the radiotracer was administered i.v. via tail vein. Surgical cannulation of femoral vein and artery was performed as follows: polyethylene catheters (PE50) filled with heparinized saline (20 IU/mL) were inserted into the left femoral artery or vein with the help of a stereomicroscope and securely fastened with ligatures (6-0 silk thread). Catheters were held in place with surgical glue. Body temperature was maintained by heated scanner bed or heated mat and monitored by rectal thermometer. Vital signs, including heart rate and respiration rate were monitored continuously during the experiments.
Arterial blood samples were collected at 2, 5, 10, 20, 30, 60 and 120 minutes post-radiotracer administration (69.8±9.2 MBq, n=17 rats). […] Following blood collection, all samples were kept on ice until analyzed. Radioactivity in whole blood and plasma was assessed using a well-type γ-counter using a 400-1400 keV window (Perkin Elmer Wizzard2, USA). Plasma samples (400 μL) were processed by acetonitrile denaturation and analyzed by HPLC (Ultimate2000, ThermoFisher, UK) on a Luna C18(2) column (Luna C18(2), 10×250 mm, 10 μm, Phenomenex, UK) with a mobile phase of acetonitrile/water 70/30 at a flow rate of 4 mL/min to estimate the parent fraction. […]

Data set [3] addresses T1, TSPO. Briefly: ^18F-LW223 PET/CT in rat model of myocardial infarction. Details: from tissue; host or cells: living Sprague-Dawley rats (brain, heart, lungs and other organs). The following applies: heart, brain and lungs; 7 days after myocardial infarction. The format is in vivo, rats. An excerpt:
Rats underwent permanent of ligation of the left anterior descending coronary artery to induce myocardial infarction and after 7 days were imaged using ^18F-LW223 PET/CT (see FIG. 11). Naive rats were used as a healthy control for comparison. […] This indicates a myocardial infarction mediated increase in expression of TSPO within these organs which may also be interpreted as increased systemic inflammation.

Take `CC[C@@H](C)N(C)C(=O)c1nc2ccccc2c(-c2ccccc2)c1C[18F]` [^18F-LW223, (R)-(N-sec-Butyl)-3-[19-fluoro]-methyl-N-methyl-4-phenylquinoline-2-carboxamide]: at TSPO [1] (brain), the “test-retest inter-subject variability of DVR” value was 16%, the VT was found to be 1.46 and the “Distribution volume ratio (DVR) relative to blood pool” value was 0.53±0.06. Besides, on TSPO [1] (heart), the “test-retest inter-subject variability of DVR” value came to 2%, the VT turned out to be 9.48±0.03 and the “Distribution volume ratio (DVR) relative to blood pool” value is 2.96±0.14. Also, at TSPO [1] (lungs), the “test-retest inter-subject variability of DVR” value was 15%, the VT amounted to 5.13±0.29 and the “Distribution volume ratio (DVR) relative to blood pool” value was determined as 1.84±0.13. The “parent in arterial blood” value in data set [2] is “approximately 70%”. The “SUV relative to the blood pool versus naive rats” value at TSPO [3] is “increase”.
